Laboratory results as given in patent US12037644B2, “Use of FGFR mutant gene panels in identifying cancer patients that will be responsive to treatment with an FGFR inhibitor” (Janssen Pharmaceutica NV, priority 2014, dated 2024).

What was measured:
[1] = system: phosphorylation of FGFR, MAPK and S6 in FGFR fusion stably transfected RK3E cells; experiment: Downstream target expression (immunoblotting); assay type: cell-based, rat; settings: 1 μM, in the presence of ligands, 1 hour; FIGS. 14A-14H
Description: For immunoblotting, whole cell lysates were collected in RIPA buffer (Thermo Scientific, Waltham, MA, USA) and sample protein concentration was assayed using BCA Protein Assay (Thermo Scientific). Equal amounts of protein (30 μg per lane) were loaded onto on 4-12% Bis-Tris gels (Invitrogen) before an SDS-page was performed. Proteins were transferred to nitrocellulose membranes and probed with antibodies against p-FGFR, total-FGFR2, p-MAPK, total-MAPK, p-S6, total S6, B-actin (Cell Signaling Technology, Danvers, MA, USA), and total-FGFR3 (Santa Cruz, Dallas, TX, USA). The membranes were blocked with Odyssey blocking buffer for 1 h at room temperature and incubated overnight at 4° C. in a primary antibody solution diluted in Odyssey blocking buffer (1:1000). After three washes in 0.1% Tween tris buffered saline (TBST), the membranes were probed with goat anti-mouse or donkey anti-rabbit IR-Dye […] or 800 cw labeled secondary antisera in Odyssey blocking buffer for 1 h at room temperature. Washes were repeated after secondary labeling and the membranes were imaged using a LiCor Odyssey scanner and the Odyssey 3.0 analytical software (LiCor, Lincoln, NE, USA).

RK3E-Transgene KRAS = experiment: Drug response testing (Cell Titer-Glo proliferation), RK3E KRAS; settings: Rattus norvegicus, 72 h, read-out: Stimulated Proliferation (IC50)
Description: (§1) After 24 hours, cells were serum starved overnight, then re-fed with 0.5% FBS growth media. […] The Microtiter plates were then incubated for 72 hours and assayed for adenosine triphosphate (ATP; a marker of metabolically active cells) content using the Cell Titer-Glo® Luminescent Cell Viability assay (Promega Corp., Madison, WI, USA) following the manufacturer's instructions, with modifications. Briefly, cells were allowed to equilibrate to room temperature, at which time a 1:1 mixture of Cell Titer-Glo® reagent was added. Cells were then placed on an orbital shaker for 2 minutes and incubated for 10 minutes at room temperature to stabilize the luminescent signal. The luminescence was quantified and measurements were conducted using an Envision Multilabel plate reader (Perkin Elmer; Waltham, MA, USA).

RK3E-Transgene FGFR3 = experiment: Drug response testing (Cell Titer-Glo proliferation), RK3E FGFR3; settings: Rattus norvegicus, 72 h, read-out: Stimulated Proliferation (IC50)
Description: as §1

[2] = system: RK3E-Transgene BAIA2PL1 (FGFR fusion stably transfected RK3E cells); experiment: Drug response testing (Cell Titer-Glo proliferation), RK3E FGFR3:BAIAP2L1; settings: Rattus norvegicus, 72 h, read-out: Stimulated Proliferation (IC50)
Description: as §1

[3] = system: RK3E-Transgene TACC3-V1 (FGFR fusion stably transfected RK3E cells); experiment: Drug response testing (Cell Titer-Glo proliferation), RK3E FGFR3:TACC3 v1; settings: Rattus norvegicus, 72 h, read-out: Stimulated Proliferation (IC50)
Description: (§2) RK3E (rat kidney epithelial cells) cells were purchased from ATCC (Manassas, VA, USA) and cultured in DMEM supplemented with FBS and antibiotics (Invitrogen, Grand Island, NY, USA).
as §1

[4] = system: RK3E-Transgene TACC3-V3 (FGFR fusion stably transfected RK3E cells); experiment: Drug response testing (Cell Titer-Glo proliferation), RK3E FGFR3:TACC3 v3; settings: Rattus norvegicus, 72 h, read-out: Stimulated Proliferation (IC50)
Description: as §2, §1

[5] = system: RK3E-Transgene Vector (empty vector control RK3E cells); experiment: Drug response testing (Cell Titer-Glo proliferation), RK3E empty vector control; settings: Rattus norvegicus, 72 h, read-out: Stimulated Proliferation (IC50)
Description: as §1

[6] = system: FGFR fusion stably transfected RK3E cells; experiment: Drug response testing for FGFR-fusion overexpressing cell lines (overall statement); settings: for sensitivity of cells harboring the FGFR fusions to the FGFR inhibitor in vitro: empty vector control did not show sensitivity
Description: as §1

[7] = system: advanced solid tumors (patients with FGFR fusion genes / FGFR aberrations); experiment: Phase I First-In-Human study in patients with advanced solid tumor; assay type: in vivo; settings: FIG. 11
RK3E-Transgene FGFR2 = experiment: Drug response testing (Cell Titer-Glo proliferation), RK3E FGFR2; settings: Rattus norvegicus, 72 h, read-out: Stimulated Proliferation (IC50)
Description: as §2, §1

[8] = system: RK3E-Transgene AFF3 (FGFR fusion stably transfected RK3E cells); experiment: Drug response testing (Cell Titer-Glo proliferation), RK3E FGFR2:AFF3; settings: Rattus norvegicus, 72 h, read-out: Stimulated Proliferation (IC50)
Description: as §2, §1

[9] = system: RK3E-Transgene OFD1 (FGFR fusion stably transfected RK3E cells); experiment: Drug response testing (Cell Titer-Glo proliferation), RK3E FGFR2:OFD1; settings: Rattus norvegicus, 72 h, read-out: Stimulated Proliferation (IC50)
Description: (§3) RK3E (rat kidney epithelial cells) cells were purchased from ATCC (Manassas, VA, USA) and cultured in DMEM supplemented with FBS and antibiotics (Invitrogen, Grand Island, NY, USA). FGFR fusion gene constructs were designed and cloned into the pReceiver expression vector (Genecopoeia, Rockville, MD, USA), which contains an HA-tag. Clones were transfected into RK3E cells using the Amaxa Cell Line Nucleofector (Lonza, Basel, Switzerland) following the manufacturer's protocol. The stably transfected cells were selected in complete medium with 800 ug/ml of G418 (Invitrogen).
as §1

[10] = system: RK3E-Transgene BICC1 (FGFR fusion stably transfected RK3E cells); experiment: Drug response testing (Cell Titer-Glo proliferation), RK3E FGFR2:BICC1; settings: Rattus norvegicus, 72 h, read-out: Stimulated Proliferation (IC50)
Description: as §2, §1

[11] = system: RK3E-Transgene CASP7 (FGFR fusion stably transfected RK3E cells); experiment: Drug response testing (Cell Titer-Glo proliferation), RK3E FGFR2:CASP7; settings: Rattus norvegicus, 72 h, read-out: Stimulated Proliferation (IC50)
Description: as §3, §1

[12] = system: RK3E-Transgene CCDC6 (FGFR fusion stably transfected RK3E cells); experiment: Drug response testing (Cell Titer-Glo proliferation), RK3E FGFR2:CCDC6; settings: Rattus norvegicus, 72 h, read-out: Stimulated Proliferation (IC50)
Description: as §3, §1

| Compound | phosphorylation of FGFR and downstream targets MAPK and S6 (immunoblot) [1] | IC50 (RK3E-Transgene KRAS) | IC50 (RK3E-Transgene FGFR3) | IC50 [2] | IC50 [3] | IC50 [4] | IC50 [5] | sensitivity of cells harboring the FGFR fusions to the FGFR inhibitor in vitro [6] | clinical responses (RECIST) ([7]; 9 mg once a day (QD), 12 mg QD and 12 mg 7d on/off, patients with the FGFR fusion genes) | maximal percentage reduction of sum of the diameters of targeted lesions from baseline (RECIST) ([7]; dose level >= 6 mg, daily or intermittent (7 days on - 7 days off), patients whose tumors harbor FGFR gene translocations and mutations) | sensitivity when compared to AZD4547 and NVP-BGJ398 ([6]; nanomolar concentration range) | IC50 (RK3E-Transgene FGFR2) | IC50 [8] | IC50 [9] | IC50 [10] | IC50 [11] | IC50 [12] |
| --- | --- | --- | --- | --- | --- | --- | --- | --- | --- | --- | --- | --- | --- | --- | --- | --- | --- |
| COc1cc(CCc2cc(NC(=O)c3ccc(N4C[C@@H](C)N[C@@H](C)C4)cc3)n[nH]2)cc(OC)c1 [AZD4547, N-[5-[2-(3,5-Dimethoxyphenyl)ethyl]-2H-pyrazol-3-yl]-4-(3,5-diemthylpiperazin-1-yl)benzamide] | inhibited phosphorylation of FGFR and downstream targets i.e. MAPK and S6 | 1480 nM | 5690 nM | 11.5 nM | 16.5 nM | 8.66 nM | 8010 nM | showed sensitivity | – | – | – | – | – | – | – | – | – |
| COc1cc(OC)cc(N(CCNC(C)C)c2ccc3ncc(-c4cnn(C)c4)nc3c2)c1 [JNJ-42756493, N-(3,5-dimethoxyphenyl)-N′-(1-methylethyl)-N-[3-(1-methyl-1H-pyrazol-4-yl)quinoxalin-6-yl]ethane-1,2-diamine] | inhibited phosphorylation of FGFR and downstream targets i.e. MAPK and S6 | – | – | – | – | – | – | – | Significant clinical responses | appear to be more sensitive | enhanced sensitivity | – | – | – | – | – | – |
| CCN1CCN(c2ccc(Nc3cc(N(C)C(=O)Nc4c(Cl)c(OC)cc(OC)c4Cl)ncn3)cc2)CC1 [NVP-BGJ398, 3-(2,6-Dichloro-3,5-dimethoxy-phenyl)-1-{6-[4-(4-ethyl-piperazin-1-yl)-phenylamino]-pyrimid-4-yl}-1-methyl-urea] | inhibited phosphorylation of FGFR and downstream targets i.e. MAPK and S6 | 2140 nM | 6340 nM | 5.16 nM | 2.59 nM | 4.09 nM | > 10000 nM | showed sensitivity | – | – | – | > 10000 nM | 2.27 nM | 16 nM | 18.2 nM | 242 nM | 10.7 nM |
